Assay results published in patent US20230096602A1, “TETRAHYDROCYCLOPENTA[B]INDOLE COMPOUNDS FOR TREATMENT OF RENAL DISEASE” (Eirgen Pharma Ltd., priority 2020, published 2023).

What was measured:
[1] = system: orchidectomized (ORX) rats; experiment: Prostate and seminal vesicle weight in ORX rat model
From the text: (§1) Orchidectomized (ORX) and sham-operated Wistar male rats were used (orchidectomized at 8 weeks of age and allowed to waste for 4 weeks). […] Rats were randomized and placed into treatment groups (n=6) based on body weight. Route of administration for all groups except testosterone enanthate (TE was given sub-cutaneously) was oral. At the end of 2 weeks of daily rats were euthanized, weighed & tissue harvested. Levator ani, prostates, and seminal vesicles were collected from each animal. Results are plotted as means±SE.

[2] = system: orchidectomized (ORX) rats; experiment: Levator ani muscle in delayed ORX rat model; type: in vivo; details: for levator ani W/BW Mean: delayed ORX rat
From the text: Results are plotted as means±SE.
Following the androgen deficiency in the ORX model, the Levator ani- and bulbocavernous muscle weights decreased in size.

healthy subjects [3] = details: healthy volunteers, any time point or dose; data of WO 2016040234; cited from earlier work
[4] = system: patients with ED who had an incomplete response to tadalafil; experiment: Study GPEC phase 2, 12 weeks; type: in vivo, human; details: for Change in Fat Mass (%) (week 12) / Change in Lean Body Mass (%) (week 12): 5 mg
From the text: The Phase 2 Study for ED also included exploratory measures for lower extremity muscle strength and power, LBM and fat mass.

[5] = system: orchidectomized (ORX) rats; experiment: Bone effects in osteopenic ORX rat model; details: in vivo
LnCAP cells = experiment: LnCAP gene expression; type: cell-based, human; details: CLUSTERIN
dog prostate = experiment: Dog toxicology: prostate weight and atrophy; type: in vivo
rat uterus = experiment: Rat uterine risk; type: in vivo
[6] = Margin of safety (AUC), cat as printed; type: in vivo; details: cat (so in the source)
healthy subjects [7] = experiment: Study GPBC multiple-dose 28 days; type: in vivo, human; details: 1 mg to 75 mg daily dose for 28 days
[8] = system: patients with androgen deficiency; experiment: Clinical studies in patients with androgen deficiency; type: in vivo, human; details: any dose level (up to 75 mg doses)
From the text: The exact effect of this decrease in testosterone levels on androgen related anabolic and prostate effects is not known, but may be dependent on the base levels of testosterone.

[9] = system: male subjects with LUTS secondary to BPH; experiment: Study SAR-202 phase 2, 16 weeks; type: in vivo, human
ER, GR, PR MR = experiment: Binding to other nuclear hormone receptors; details: selectivity
[10] = Human PK, single and repeated doses; type: in vivo
From the text: The human pharmacokinetics (PK) of OPK-88004 was investigated following single and repeated doses. Following tmax, OPK-88004 concentrations appear to decline in a biexponential fashion characterized by a short distribution phase and a long terminal phase. Exposure appears to increase approximately dose proportionally in the clinical dosing range. Steady state was achieved within 28 days of dosing. […] These therapeutic benefits of more controlled exposure may result in improved LBM and physical/muscle strength preservation, physical function improvement and muscle wasting prevention. OPK-88004 bioexponential PK profile is important for the optimization of side effect benefit/risk ratio in special populations including dialysis patients.

clinical study subjects = experiment: Clinical safety assessment across studies; type: in vivo, human; details: phase 2 study
[11] = system: orchidectomized (ORX) rats; experiment: Testosterone induced prostate and seminal vesicle growth in delayed ORX rat model; type: in vivo; details: for seminal vesicle wet weights Abs(Dif)-LSD / prostate weights Abs(Dif)-LSD: Dunnett
From the text: as §1

healthy subjects [12] = experiment: Study GPBA QTcF concentration-response analysis; type: in vivo, human; details: concentrations found with doses of 250 mg or greater
Experimental: At TT701 concentrations found with doses of 250 mg or greater, the mean QTcF prolongation was greater than 10 msec. The risk for clinically significant QT prolongation at doses <250 mg can be excluded.

[13] = Margin of safety (AUC), dog; type: in vivo
[14] = baseline testosterone <340 ng/dL
[15] = baseline testosterone ≥340 ng/dL
[16] = ORX + TE, 1 mg/kg/d + Example 1, 3 mg/kg/d vs ORX + TE
[17] = ORX + TE, 1 mg/kg/d + Example 1, 10 mg/kg/d vs ORX + TE
[18] = ORX + TE, 1 mg/kg/d + Example 1, 30 mg/kg/d vs ORX + TE

Molecule: CC(C)OC(=O)N[C@H]1Cc2c(n(Cc3ccccn3)c3ccc(C#N)cc23)C1 [compound of Formula II, (S)-(7-cyano-4-pyridin-2-ylmethyl-1,2,3,4-tetrahydro-cyclopenta[b]indol-2-yl)-carbamic acid isopropyl ester]
- prostate or seminal vesical weights ([1]; delayed ORX rats, 2 or 8 weeks, increasing doses up to 20-30 mg/kg): no effect
- changes in the prostate ([1]; orchidectomized rats, 30 mg/kg, highest dose examined): did not induce changes
- Rat SV/Prost risk mgs/kg ([1]; rat): >30 mpk
- levator ani W/BW Mean ([2]; 8 weeks, dose 1): 0.2749 mg/g
- levator ani W/BW Mean ([2]; 8 weeks, dose 3): 0.2575 mg/g
- levator ani W/BW Mean ([2]; 8 weeks, dose 10): 0.3237 mg/g
- levator ani W/BW Mean ([2]; 8 weeks, dose 20): 0.325 mg/g
- Muscle LA ED mg/kg ([2]; rat): 3 mpk
- prostate specific antigen (PSA) levels, changes from baseline vs placebo (healthy subjects [3]): no significant changes
- Change in Fat Mass (%) (week 12) [4, 14]: −1.85%
- Change in Lean Body Mass (%) (week 12) [4, 14]: 1.60%
- Change in Fat Mass (%) (week 12) [4, 15]: −0.95%
- Change in Lean Body Mass (%) (week 12) [4, 15]: 0.88%
- Hematocrit ([4]; 12 weeks (FIG. 11)): no change
- Bone Eff (BM) [5]: 2 mpk
- EC50 (LnCAP cells): > 100 nM
- decreases of prostate weight (dog prostate; dogs, by 3 months (so in the source)): 60-75%
- progressive decrease in prostate size (dog prostate; normal dogs, six-month treatment period): 60%
- Rat uterine risk (rat uterus): 20 mpk
- MOS (AUC) [6]: 71 X
- PSA test, effect on the prostate (healthy subjects [7]): neutral to negative effect
- PSA [8]: No increases
- Change in Fat mass (kg) (week 16) ([9]; 15 mg, 16 weeks): -1.47 kg
- Change in Fat mass (kg) (week 16) ([9]; 25 mg, 16 weeks): -1.49 kg
- Change in Lean Body Mass (kg) (week 16) ([9]; 25 mg, 16 weeks, listed as OPK-88008): 1.96 kg
- Change in Prostate Specific Antigen (week 16 to baseline) ([9]; 25 mg, listed as OPK-88008): −15.44 (p = 0.006)
- binding affinity for hAR compared to other nuclear hormone receptors (ER, GR, PR MR): > 500 fold
- Accumulation with multiple dosing ([10]; in vivo): up to 2.5 fold
- time to steady state ([10]; repeated dosing): ≤ 28 days
- transient abnormal AST or ALT level (clinical study subjects; one subject): > 3 ×ULN
- transient abnormal AST or ALT level (clinical study subjects; two subjects): > 2 ×ULN
- seminal vesicle wet weights Abs(Dif)-LSD ([11]; ORX + Example 1, 10 mg/kg/d (no TE) vs ORX + TE): 1.411
- prostate weights Abs(Dif)-LSD [11, 16]: −0.11
- seminal vesicle wet weights Abs(Dif)-LSD [11, 16]: −0.34
- prostate weights Abs(Dif)-LSD [11, 17]: 0.036
- seminal vesicle wet weights Abs(Dif)-LSD [11, 17]: 0.078
- prostate weights Abs(Dif)-LSD [11, 18]: 0.025
- seminal vesicle wet weights Abs(Dif)-LSD [11, 18]: 0.536
- prostate weight and seminal vesical weights normalized to body weight ([11]; TE 1 mg/kg/d + 3, 10 and 30 mg/kg/d, 2 weeks, compared to TE alone): decreasing
- mean QTcF prolongation (healthy subjects [12]): greater than 10 msec
- MOS (AUC) [13]: 28 X

Molecule: CCCCCCC(=O)O[C@H]1CC[C@H]2[C@@H]3CCC4=CC(=O)CC[C@]4(C)[C@H]3CC[C@]12C [Testosterone Enanthate, reference compound]
- prostate weight and seminal vesical weight ([11]; orchidectomized rats, 1 mg/k/d alone, 2 weeks): increase

B1: PTH: PTH 10 comparator group in the delayed ORX rat model, Table 7 (peptide, UniProt P01270 32-115, looked up)
Parathyroid hormone: SVSEIQLMHNLGKHLNSMERVEWLRKKLQDVHNFVALGAPLAPRDAGSQRPRKKEDNVLVESHEKSLGEADKADVNVLTKAKSQ
modifications: Parathyroid hormone
- levator ani W/BW Mean ([2]; PTH 10 (head: ug/kg/d)): 0.1665 mg/g
